This note sets out measurements from PMC11354204, “Lactylation stabilizes TFEB to elevate autophagy and lysosomal activity” (The Journal of Cell Biology, 2024).

One test has as its target T1, p300; p300-HA (Homo sapiens, UniProt Q09472).
T1 construct: gene EP300; HA-tagged p300 immunoprecipitated from transfected HEK293T cells
Kind of test: in vitro lactylation of recombinant human TFEB, anti-Kla western blot. As to conditions: acyl donor; acceptor protein TFEB (10 μg); immunoprecipitated p300-HA; 50 mM Tris-HCl pH 8.0, 30 °C, 1 h. In kind it is biochemical. A general note: A western blot detects proteins with antibodies after separation by electrophoresis.

For the next test, the target named is T2, NDRG3 (Homo sapiens, UniProt Q9UGV2).
T2 construct: human NDRG3 in pGEX-5X-1, GST-tagged, expressed in E. coli BL21, glutathione-Sepharose
T2 sequence (Q9UGV2 whole entry): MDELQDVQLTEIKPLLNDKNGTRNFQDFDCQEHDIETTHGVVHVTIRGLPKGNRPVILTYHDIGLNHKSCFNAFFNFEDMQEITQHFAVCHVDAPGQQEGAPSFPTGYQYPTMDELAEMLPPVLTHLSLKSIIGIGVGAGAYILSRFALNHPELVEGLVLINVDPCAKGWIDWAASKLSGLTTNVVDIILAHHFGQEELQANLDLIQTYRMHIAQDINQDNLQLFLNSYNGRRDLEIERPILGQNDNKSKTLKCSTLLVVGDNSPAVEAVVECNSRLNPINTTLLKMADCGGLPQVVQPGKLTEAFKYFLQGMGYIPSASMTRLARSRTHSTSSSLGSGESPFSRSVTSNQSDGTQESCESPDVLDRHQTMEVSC
Kind of test: isothermal titration calorimetry; intrinsic tryptophan fluorescence quenching. It is filed as binding. The following applies: ITC 25 °C, 10 mM lactate into 0.5 mM NDRG3; Trp quenching with sodium lactate, 100 μM protein, 10 mM NaH2PO4 pH 7.5; non-covalent; used as positive control for TFEB. A general note: ITC needs no label: the signal is the heat of the interaction.

T1 sequence (Q09472 2-2414): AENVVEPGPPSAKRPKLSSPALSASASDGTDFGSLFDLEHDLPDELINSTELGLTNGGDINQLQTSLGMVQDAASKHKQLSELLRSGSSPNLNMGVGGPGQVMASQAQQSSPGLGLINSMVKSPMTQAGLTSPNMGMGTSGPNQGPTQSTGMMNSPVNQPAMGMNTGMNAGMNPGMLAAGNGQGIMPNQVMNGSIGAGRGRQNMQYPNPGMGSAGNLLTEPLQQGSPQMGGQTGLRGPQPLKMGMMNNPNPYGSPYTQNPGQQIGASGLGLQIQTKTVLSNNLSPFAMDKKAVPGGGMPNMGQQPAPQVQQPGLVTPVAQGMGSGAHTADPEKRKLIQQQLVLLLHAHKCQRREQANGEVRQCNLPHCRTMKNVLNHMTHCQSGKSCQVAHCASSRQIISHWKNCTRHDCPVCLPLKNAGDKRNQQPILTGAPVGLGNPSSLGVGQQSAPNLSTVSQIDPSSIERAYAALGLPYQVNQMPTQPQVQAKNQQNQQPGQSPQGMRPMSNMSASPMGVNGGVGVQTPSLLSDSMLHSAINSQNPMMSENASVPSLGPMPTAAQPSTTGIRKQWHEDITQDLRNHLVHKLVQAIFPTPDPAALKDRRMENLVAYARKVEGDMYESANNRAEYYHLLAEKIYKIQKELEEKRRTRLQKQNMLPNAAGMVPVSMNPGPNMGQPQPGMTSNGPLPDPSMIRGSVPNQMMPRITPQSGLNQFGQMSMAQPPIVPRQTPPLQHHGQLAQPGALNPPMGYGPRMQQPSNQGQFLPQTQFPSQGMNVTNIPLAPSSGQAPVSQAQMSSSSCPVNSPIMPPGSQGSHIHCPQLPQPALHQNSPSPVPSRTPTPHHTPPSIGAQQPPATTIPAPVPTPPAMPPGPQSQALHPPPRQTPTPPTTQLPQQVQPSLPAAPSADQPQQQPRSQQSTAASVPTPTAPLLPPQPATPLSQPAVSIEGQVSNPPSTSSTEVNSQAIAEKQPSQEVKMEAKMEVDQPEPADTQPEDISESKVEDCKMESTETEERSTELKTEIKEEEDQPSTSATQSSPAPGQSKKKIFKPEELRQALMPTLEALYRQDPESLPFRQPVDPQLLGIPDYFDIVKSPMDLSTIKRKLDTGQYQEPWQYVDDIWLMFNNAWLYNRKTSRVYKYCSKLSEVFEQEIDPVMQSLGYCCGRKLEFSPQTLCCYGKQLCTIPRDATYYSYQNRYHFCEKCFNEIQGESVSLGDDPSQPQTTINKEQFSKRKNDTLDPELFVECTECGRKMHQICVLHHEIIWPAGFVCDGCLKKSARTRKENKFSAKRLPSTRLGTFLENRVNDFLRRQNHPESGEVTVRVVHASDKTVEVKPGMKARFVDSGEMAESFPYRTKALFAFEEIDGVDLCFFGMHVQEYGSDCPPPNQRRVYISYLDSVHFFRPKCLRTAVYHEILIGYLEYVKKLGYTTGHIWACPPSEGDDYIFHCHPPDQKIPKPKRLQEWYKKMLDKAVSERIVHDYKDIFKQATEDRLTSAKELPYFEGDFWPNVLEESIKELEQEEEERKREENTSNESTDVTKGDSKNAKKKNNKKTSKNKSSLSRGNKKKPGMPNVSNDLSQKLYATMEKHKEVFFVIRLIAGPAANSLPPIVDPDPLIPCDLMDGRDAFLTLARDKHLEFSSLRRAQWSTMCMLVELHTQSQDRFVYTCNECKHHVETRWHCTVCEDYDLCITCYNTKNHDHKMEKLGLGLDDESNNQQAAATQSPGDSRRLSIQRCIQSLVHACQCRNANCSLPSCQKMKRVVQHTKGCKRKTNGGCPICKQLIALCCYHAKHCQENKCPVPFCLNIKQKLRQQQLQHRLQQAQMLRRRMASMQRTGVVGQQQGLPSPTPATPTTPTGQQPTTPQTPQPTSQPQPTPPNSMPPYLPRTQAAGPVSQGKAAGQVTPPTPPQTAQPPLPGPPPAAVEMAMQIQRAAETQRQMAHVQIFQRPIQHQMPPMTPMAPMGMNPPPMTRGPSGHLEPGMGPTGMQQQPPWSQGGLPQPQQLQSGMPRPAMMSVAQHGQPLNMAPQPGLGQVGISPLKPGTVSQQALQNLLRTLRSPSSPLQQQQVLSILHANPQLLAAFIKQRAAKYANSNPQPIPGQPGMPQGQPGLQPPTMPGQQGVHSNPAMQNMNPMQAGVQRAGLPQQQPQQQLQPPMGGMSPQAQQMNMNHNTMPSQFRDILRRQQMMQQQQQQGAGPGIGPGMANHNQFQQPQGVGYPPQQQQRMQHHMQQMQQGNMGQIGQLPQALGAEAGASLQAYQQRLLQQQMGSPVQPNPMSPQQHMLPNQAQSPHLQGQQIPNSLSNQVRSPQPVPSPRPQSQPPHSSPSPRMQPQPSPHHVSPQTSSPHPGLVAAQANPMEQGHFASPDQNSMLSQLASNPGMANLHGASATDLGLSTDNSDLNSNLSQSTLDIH

For the compound `C[C@H](O)C(=O)SCCNC(=O)CCNC(=O)[C@H](O)C(C)(C)COP(=O)(O)OP(=O)(O)OC[C@H]1O[C@@H](n2cnc3c(N)ncnc32)[C@H](O)[C@@H]1OP(=O)(O)O` [L-lactyl-CoA], the “in vitro lactylation of recombinant human TFEB, anti-Kla western blot” value at p300; p300-HA is “lactylation was observed in TFEB incubated with p300-HA instead of transferase-inactivated p300-WY-HA”. As for `C[C@H](O)C(=O)O` [lactate], the “isothermal titration calorimetry; intrinsic tryptophan fluorescence quenching” value on NDRG3 is given as “sodium lactate resulted in the fixed tryptophan fluorescence quenching of purified NDRG3”.
